Source: patent US5210193A, “Piperazine derivatives” (American Cyanamid Company, priority 1990, dated 1993)
Values after ≈ are worked out from the molar mass of the structure shown. Values joined by “and” are separate entries in the source; they are usually repeats but may differ in a detail not shown here. Identical values can stand only once. Counter-ions that a name gives are not always drawn. Like-named read-outs stand apart in the source and are kept apart here.

Tests used:
Test in all cases: in vitro antibacterial MIC, agar plate dilution
Type in all cases: cell-based
[1] = test system: Staphylococcus aureus ATTC 29213; details: 35° C.
Summary of the method: (§1)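 Minimal inhibitory concentrations came from agar plate dilution in Mueller-Hinton medium. Each organism was delivered at roughly 10^4 CFU by Steers replicator. Plates were read for visible growth after 18 hours at 35° C, values in mcg/ml.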

[2] = test system: Serratia marcescens MOR 84-41; details: 35° C.
Summary of the method: as §1

[3] = test system: Morganella morganii MOR 84-45; details: 35° C.
Summary of the method: as §1

[4] = test system: Klebsiella pneumoniae MOR 84-24; details: 35° C.
Summary of the method: as §1

Citrobacter div. K 82-24 = details: Citrobacter, DIV.K8224, 18 h, 35° C., read-out: MIC
Summary of the method: as §1

[5] = test system: Klebsiella pneumoniae IO 83-5; details: 35° C.
Summary of the method: as §1

[6] = test system: Streptococcus faecalis VGH 84-69; details: 35° C.
Summary of the method: as §1

[7] = test system: Pseudomonas aeruginosa K 84-16; details: 35° C.
Summary of the method: as §1

[8] = test system: Proteus rettgeri IO 83-21; details: 35° C.
Summary of the method: as §1

[9] = test system: Serratia marcescens CMC 83-74; details: 35° C.
Summary of the method: as §1

[10] = test system: Enterobacter cloacae MOR 84-30; details: 35° C.
Summary of the method: as §1

[11] = test system: Providencia stuarti CMC 83-3; details: 35° C.
Summary of the method: as §1

[12] = test system: Staphylococcus aureus VGH 84-47; details: 35° C.
Summary of the method: as §1

[13] = test system: Pseudomonas aeruginosa CMC 83-20; details: 35° C.
Summary of the method: as §1

[14] = test system: Pseudomonas aeruginosa VGH 84-3; details: 35° C.
Summary of the method: as §1

[15] = test system: Escherichia coli ATCC 25922; details: 35° C.
Summary of the method: as §1

[16] = test system: Klebsiella pneumoniae CMC 84-31; details: 35° C.
Summary of the method: as §1

[17] = test system: Streptococcus faecalis CMC 83-120; details: 35° C.
Summary of the method: as §1

[18] = test system: Staphylococcus aureus K 82-26; details: 35° C.
Summary of the method: as §1

[19] = test system: Enterobacter cloacae K 84-10; details: 35° C.
Summary of the method: as §1

[20] = test system: Escherichia coli CMC 84-50; details: 35° C.
Summary of the method: as §1

[21] = test system: Morganella morganii VHG 84-12; details: Morganella morganii VHG 84-12 (VGH 84-12 for Example 131), 35° C.
Summary of the method: as §1

[22] = test system: Staphylococcus aureus CMC 83-131; details: 35° C.
Summary of the method: as §1

[23] = test system: Streptococcus faecalis UCI 85-30; details: 35° C.
Summary of the method: as §1

[24] = test system: Enterobacter cloacae VGH 84-39; details: 35° C.
Summary of the method: as §1

[25] = test system: Escherichia coli VGH 84-19; details: 35° C.
Summary of the method: as §1

[26] = test system: Morganella morganii CMC 84-38; details: 35° C.
Summary of the method: as §1

[27] = test system: Escherichia coli MOR 84-20; details: 35° C.
Summary of the method: as §1

[28] = test system: Staphylococcus aureus VGH 84-45; details: 35° C.
Summary of the method: as §1

[29] = test system: Streptococcus faecalis UCI 85-19; details: 35° C.
Summary of the method: as §1

Escherichia coli LL 311 = details: Escherichia coli, LL311, 18 h, 35° C., read-out: MIC
Summary of the method: as §1

[30] = test system: Pseudomonas aeruginosa LL-1244; details: Pseudomonas aeruginosa, LL1244, 18 h, 35° C., read-out: MIC
Summary of the method: as §1

[31] = test system: Pseudomonas aeruginosa VGH 84-4; details: Pseudomonas aeruginosa, VGH844, 18 h, 35° C., read-out: MIC
Summary of the method: as §1

[32] = test system: Proteus rettgeri CMC 84-41; details: 18 hours, 35° C., monohydrochloride
Summary of the method: as §1

[33] = test system: Staphylococcus aureus Smith; details: 35° C.
Summary of the method: as §1

[34] = test system: Morganella morganii CMC 84-37; details: 35° C.
Summary of the method: as §1

[35] = test system: Streptococcus faecalis VGH 84-65; details: Enterococcus faecalis, VGH8465, 18 h, 35° C., read-out: MIC
Summary of the method: as §1

[36] = test system: Serratia marcescens VGH 84-30; details: Serratia marcescens, VGH8430, 18 h, 35° C., read-out: MIC
Summary of the method: as §1

[37] = test system: Serratia marcescens K 84-18; details: 18 hours, 35° C., monohydrochloride
Summary of the method: as §1

[38] = test system: Escherichia coli CMC 84-11; details: 18 hours, 35° C., monohydrochloride
Summary of the method: as §1

O=C(O)c1cn(C2CC2)c2cc(N3CCNC(c4cc[nH]c4)C3)c(F)cc2c1=O (stereo not drawn) [Example 119] was tested, and the MIC ([1]; Staphylococcus aureus, ATTC29213, 18 h, read-out: MIC) was 0.12 µg/mL (≈ 0.303 µM), the MIC ([2]; Serratia marcescens, MOR8441, 18 h, read-out: MIC) was 0.5 µg/mL (≈ 1.26 µM) and the MIC ([3]; Morganella morganii, MOR8445, 18 h, read-out: MIC) was 0.03 µg/mL (≈ 0.0757 µM). The MIC ([4]; Klebsiella pneumoniae, MOR8424, 18 h, read-out: MIC) was 0.12 µg/mL (≈ 0.303 µM), the MIC (Citrobacter div. K 82-24) was 0.03 µg/mL (≈ 0.0757 µM) and the MIC ([5]; Klebsiella pneumoniae, IO835, 18 h, read-out: MIC) was 0.12 µg/mL (≈ 0.303 µM). The MIC ([6]; Enterococcus faecalis, VGH8469, 18 h, read-out: MIC) was 0.5 µg/mL (≈ 1.26 µM), the MIC ([7]; Pseudomonas aeruginosa, K8416, 18 h, read-out: MIC) was 4 µg/mL (≈ 10.1 µM) and the MIC ([8]; Providencia rettgeri, IO8321, 18 h, read-out: MIC) was 0.12 µg/mL (≈ 0.303 µM). For the same molecule, the MIC ([9]; Serratia marcescens, CMC8374, 18 h, read-out: MIC) was 16 µg/mL (≈ 40.4 µM), the MIC ([10]; Enterobacter cloacae, MOR8430, 18 h, read-out: MIC) was 0.5 µg/mL (≈ 1.26 µM) and the MIC ([11]; Providencia, CMC833, 18 h, read-out: MIC) was 4 µg/mL (≈ 10.1 µM). For the same molecule, the MIC ([12]; Staphylococcus aureus, VGH8447, 18 h, read-out: MIC) was 0.12 µg/mL (≈ 0.303 µM), the MIC ([13]; Pseudomonas aeruginosa, CMC8320, 18 h, read-out: MIC) was 2 µg/mL (≈ 5.05 µM) and the MIC ([14]; Pseudomonas aeruginosa, VGH843, 18 h, read-out: MIC) was 8 µg/mL (≈ 20.2 µM). It also gave an MIC ([15]; Escherichia coli, ATCC25922, 18 h, read-out: MIC) of 0.008 µg/mL (≈ 0.0202 µM), an MIC ([16]; Klebsiella pneumoniae, CMC8431, 18 h, read-out: MIC) of 0.06 µg/mL (≈ 0.151 µM) and an MIC ([17]; Enterococcus faecalis, CMC83120, 18 h, read-out: MIC) of 0.2 µg/mL (≈ 0.505 µM). It also gave an MIC ([18]; Staphylococcus aureus, K8226, 18 h, read-out: MIC) of 0.5 µg/mL (≈ 1.26 µM), an MIC ([19]; Enterobacter cloacae, K8410, 18 h, read-out: MIC) of 0.3 µg/mL (≈ 0.757 µM) and an MIC ([20]; Escherichia coli, CMC8450, 18 h, read-out: MIC) of 0.03 µg/mL (≈ 0.0757 µM). It also gave an MIC ([21]; Morganella morganii, VHG8412, 18 h, read-out: MIC) of 0.5 µg/mL (≈ 1.26 µM), an MIC ([22]; Staphylococcus aureus, CMC83131, 18 h, read-out: MIC) of 0.25 µg/mL (≈ 0.631 µM) and an MIC ([23]; Enterococcus faecalis, UCI8530, 18 h, read-out: MIC) of 1 µg/mL (≈ 2.52 µM). The MIC ([24]; Enterobacter cloacae, VGH8439, 18 h, read-out: MIC) was 0.06 µg/mL (≈ 0.151 µM), the MIC ([25]; Escherichia coli, VGH8419, 18 h, read-out: MIC) was 0.015 µg/mL (≈ 0.0378 µM) and the MIC ([26]; Morganella morganii, CMC8438, 18 h, read-out: MIC) was 0.06 µg/mL (≈ 0.151 µM). It also gave an MIC ([27]; Escherichia coli, MOR8420, 18 h, read-out: MIC) of 0.015 µg/mL (≈ 0.0378 µM).

With O=C(O)c1cn(C2CC2)c2cc(N3CCNC(c4ccco4)C3)c(F)cc2c1=O (stereo not drawn) [Example 99, 1-Cyclopropyl-6-fluoro-1,4-dihydro-4-oxo-7-[3-(2-furanyl) -1-piperazinyl-3-quinolinecarboxylic acid, monohydrochloride] the MIC ([28]; Staphylococcus aureus, VGH8445, 18 h, read-out: MIC) was under 0.015 µg/mL, the MIC ([1]; 18 hours, monohydrochloride) was 0.03 µg/mL and the MIC ([2]; 18 hours, monohydrochloride) was 0.25 µg/mL. For the same molecule, the MIC ([29]; Enterococcus faecalis, UCI8519, 18 h, read-out: MIC) was 0.5 µg/mL, the MIC (Escherichia coli LL 311) was 0.03 µg/mL and the MIC ([7]; 18 hours, monohydrochloride) was 4 µg/mL. It also gave an MIC ([9]; 18 hours, monohydrochloride) of 8 µg/mL, an MIC ([10]; 18 hours, monohydrochloride) of 0.25 µg/mL and an MIC ([11]; 18 hours, monohydrochloride) of 8 µg/mL. For the same molecule, the MIC ([13]; 18 hours, monohydrochloride) was 4 µg/mL, the MIC [30] was 4 µg/mL and the MIC ([14]; 18 hours, monohydrochloride) was 16 µg/mL. The MIC ([15]; 18 hours, monohydrochloride) was 0.06 µg/mL and 0.12 µg/mL, the MIC ([17]; 18 hours, monohydrochloride) was 0.5 µg/mL and the MIC [31] was 2 µg/mL. It also gave an MIC [32] of 0.12 µg/mL, an MIC ([18]; 18 hours, monohydrochloride) of 0.03 µg/mL and an MIC ([33]; Staphylococcus aureus, 18 h, read-out: MIC) of under 0.015 µg/mL. The MIC ([19]; 18 hours, monohydrochloride) was 0.06 µg/mL, the MIC ([23]; 18 hours, monohydrochloride) was 0.5 µg/mL and the MIC ([34]; Morganella morganii, CMC8437, 18 h, read-out: MIC) was 0.12 µg/mL. It also gave an MIC [35] of 0.5 µg/mL, an MIC [36] of 8 µg/mL and an MIC ([26]; 18 hours, monohydrochloride) of 0.12 µg/mL. For the same molecule, the MIC [37] was 0.5 µg/mL.

With O=C(O)c1cn(C2CC2)c2cc(N3CCNC(c4ccccn4)C3)c(F)cc2c1=O (stereo not drawn) [Example 129, 1-Cyclopropyl-6-fluoro-1,4-dihydro-4-oxo-7-[3-(2-pyridinyl) -1-piperazinyl]-3-quinolinecarboxylic acid, monohydrochloride] the MIC ([28]; 18 hours, monohydrochloride) was 0.03 µg/mL, the MIC ([2]; 18 hours, monohydrochloride) was 0.5 µg/mL and the MIC ([29]; 18 hours) was 2 µg/mL. For the same molecule, the MIC ([3]; 18 hours, monohydrochloride) was 0.25 µg/mL, the MIC ([4]; 18 hours, monohydrochloride) was 0.5 µg/mL and the MIC ([5]; 18 hours, monohydrochloride) was 0.5 µg/mL. It also gave an MIC ([6]; 18 hours, monohydrochloride) of 2 µg/mL, an MIC [38] of 0.03 µg/mL and an MIC ([8]; 18 hours, monohydrochloride) of 0.5 µg/mL. The MIC ([9]; 18 hours, monohydrochloride) was 16 µg/mL, the MIC ([10]; 18 hours, monohydrochloride) was 0.5 µg/mL and the MIC ([11]; 18 hours, monohydrochloride) was 16 µg/mL. For the same molecule, the MIC ([12]; 18 hours, monohydrochloride) was 0.12 µg/mL, the MIC ([15]; 18 hours, monohydrochloride) was 0.03 µg/mL and 0.06 µg/mL and the MIC ([16]; 18 hours, monohydrochloride) was 0.25 µg/mL. For the same molecule, the MIC ([17]; 18 hours, monohydrochloride) was 2 µg/mL, the MIC ([18]; 18 hours, monohydrochloride) was 2 µg/mL and the MIC ([33]; 18 hours, monohydrochloride) was 0.03 µg/mL. For the same molecule, the MIC ([20]; 18 hours, monohydrochloride) was 0.25 µg/mL, the MIC ([21]; 18 hours, monohydrochloride) was 0.5 µg/mL and the MIC ([22]; 18 hours, monohydrochloride) was 0.25 µg/mL. For the same molecule, the MIC ([23]; 18 hours, monohydrochloride) was 4 µg/mL, the MIC ([24]; 18 hours, monohydrochloride) was 0.25 µg/mL and the MIC ([34]; 18 hours, monohydrochloride) was 0.12 µg/mL. The MIC ([25]; 18 hours, monohydrochloride) was 0.12 µg/mL, the MIC ([26]; 18 hours, monohydrochloride) was 0.25 µg/mL and the MIC ([27]; 18 hours, monohydrochloride) was 0.12 µg/mL. For the same molecule, the MIC [37] was 0.25 µg/mL.
